From patent US9920010B2, “CXCR7 receptor modulators” (IDORSIA PHARMACEUTICALS LTD, priority 2013, dated 2018)

molecular target: T1, CXCR7 (Homo sapiens, UniProt P25106); assay: PathHunter CHO-K1 CXCR7 b-arrestin recruitment assay (CXCR7 agonistic activity); type: cell-based; details: PathHunter CHO-K1 CXCR7 b-arrestin cell line
T1 construct: host or cells: CHO-K1 (PathHunter CHO-K1 CXCR7 b-arrestin cell line, stably transfected)
Protocol: The CXCl12 receptor and CXCR7 agonistic activities of the compounds of formula (I) are determined in accordance with the following experimental method.
The assay is using the PathHunter™ CHO-K1 CXCR7 b-arrestin cell line from DiscoverX. The system is based on the Enzyme Fragment Complementation Technology. Two complementing fragments of the b-galactosidase enzyme are expressed within stably transfected cells. The larger portion of b-gal, termed EA for Enzyme Acceptor, is fused to the C-terminus of b-arrestin 2. The smaller fragment, termed ProLink™ tag, is fused to CXCR7 at the C-terminus. Upon activation, b-arrestin is recruited which forces the interaction of ProLink and EA, allowing complementation of the two fragments of b-gal and the formation of a functional enzyme which is capable of hydrolysing the substrate and generating a chemiluminescent signal.
CHO-K1 CXCR7 b-arrestin cells are detached from culture dishes with a cell dissociation buffer (Invitrogen, #13151-014) and collected in growing medium (F12 HAMS 90% (v/v)/FCS 10% (v/v), Penicillin/streptomycin 1% (v/v)). 5000 cells per well (in 20 μl) are seeded in a 384 well plate (white-walled, clear bottom; BD Falcon #353274). The plate is incubated at 37° C./5% CO2 for 24 hours. Medium is then replaced by 20 μl OPTIMEM (Invitrogen #31985) for 3 to 4 hours. Test compounds are dissolved at 10 mM in DMSO and serially diluted in DMSO to 200× of the final concentration for dose response curves. Compounds are then diluted 1:33.3 in HBSS1×. 5 μl/well of HBSS1×/20 mM HEPES/0.2% BSA are added to the assay plate followed by addition of 5 μl/well of diluted compounds. CXCL12 (Peprotech #300-28A) may be used as a reference agonist. The plate is incubated for 90 minutes at 37° C. 12 μl of detection reagent (Path Hunter Detection Kit, DiscoveRx, #93-0001) is transferred to the assay plate and to the plate is incubated for 1 hour at room temperature. Luminescent signal is read in a microplate reader (FLUOstar Optima, bmg). The calculated EC50 values may fluctuate depending on the daily cellular assay performance. Fluctuations of this kind are known to those skilled in the art. Average EC50 values from several measurements are given as geometric mean values.

T1 sequence (P25106 whole entry): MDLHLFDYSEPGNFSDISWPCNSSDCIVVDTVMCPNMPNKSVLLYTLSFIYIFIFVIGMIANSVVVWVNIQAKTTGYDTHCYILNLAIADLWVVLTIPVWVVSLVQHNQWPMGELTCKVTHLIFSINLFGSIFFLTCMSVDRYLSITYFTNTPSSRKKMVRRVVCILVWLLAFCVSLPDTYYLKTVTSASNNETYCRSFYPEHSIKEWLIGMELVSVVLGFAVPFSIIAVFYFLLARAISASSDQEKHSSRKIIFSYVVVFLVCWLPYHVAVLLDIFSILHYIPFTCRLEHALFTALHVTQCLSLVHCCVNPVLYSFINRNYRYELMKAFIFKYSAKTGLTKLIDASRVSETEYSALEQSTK
T1 sequence (P32121 whole entry partner): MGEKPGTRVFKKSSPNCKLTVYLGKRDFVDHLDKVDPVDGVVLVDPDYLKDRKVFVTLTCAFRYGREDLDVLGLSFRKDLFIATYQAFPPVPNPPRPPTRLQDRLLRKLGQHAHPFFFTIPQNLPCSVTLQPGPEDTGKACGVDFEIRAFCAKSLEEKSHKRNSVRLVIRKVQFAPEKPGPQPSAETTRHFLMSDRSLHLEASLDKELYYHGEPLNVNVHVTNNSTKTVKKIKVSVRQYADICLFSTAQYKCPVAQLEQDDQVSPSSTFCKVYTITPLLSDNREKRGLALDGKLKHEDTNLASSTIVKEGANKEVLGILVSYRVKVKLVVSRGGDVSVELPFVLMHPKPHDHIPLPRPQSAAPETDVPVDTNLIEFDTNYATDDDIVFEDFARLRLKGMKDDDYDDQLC

Row | Compound | EC50
1 | 2-(2-Cyclopropylmethyl-1,2,3,4-tetrahydro-isoquinolin-5-ylamino)-N-(2-dimethylamino-ethyl)-N-pyridin-3-ylmethyl-acetamide [Example 263] | 127 nM
2 | 2-(2-Cyclopropylmethyl-1,2,3,4-tetrahydro-isoquinolin-5-ylamino)-N-isoxazol-5-ylmethyl-N-(2-trifluoromethyl-benzyl)-acetamide [Example 250] | 31 nM
3 | CN1CCCC1CCN(Cc1ccccc1)C(=O)Cc1cccc2c1CCN(CC1CC1)C2 (racemic) [Example 4, rac-N-Benzyl-2-(2-cyclopropylmethyl-1,2,3,4-tetrahydro-isoquinolin-5-yl)-N-[2-(1-methyl-pyrrolidin-2-yl)-ethyl]-acetamide] | 47 nM
4 | CN1CCCC(N(Cc2ccccc2C(F)(F)F)C(=O)CNc2cccc3c2CCN(C(=O)OC(C)(C)C)C3)C1 (racemic) [Example 11, rac-5-({[(1-Methyl-piperidin-3-yl)-(2-trifluoromethyl-benzyl)-carbamoyl]-methyl}-amino)-3,4-dihydro-1H-isoquinoline-2-carboxylic acid tert-butyl ester] | 52 nM
5 | CCC(=O)N1CCc2c(cccc2NCC(=O)N(CCC2CCCN2C)Cc2ccccc2)C1 (racemic) [Example 32, rac-N-Benzyl-N-[2-(1-methyl-pyrrolidin-2-yl)-ethyl]-2-(2-propionyl-1,2,3,4-tetrahydro-isoquinolin-5-ylamino)-acetamide] | 28 nM
6 | CN1CCCC1CCN(C/C=C/c1ccccc1)C(=O)CNc1cccc2c1CCN(CC1CC1)C2 (racemic) [Example 53, rac-2-(2-Cyclopropylmethyl-1,2,3,4-tetrahydro-isoquinolin-5-ylamino)-N-[2-(1-methyl-pyrrolidin-2-yl)-ethyl]-N-((E)-3-phenyl-allyl)-acetamide] | 23 nM
7 | CC(C)(C)OC(=O)N1CCC(N(Cc2ccccc2)C(=O)CNc2cccc3c2CCN(CC2CC2)C3)C1 (racemic) [Example 65, rac-3-{Benzyl-[2-(2-cyclopropylmethyl-1,2,3,4-tetrahydro-isoquinolin-5-ylamino)-acetyl]-amino}-pyrrolidine-1-carboxylic acid tert-butyl ester] | 150 nM

Stronger by EC50, values ahead:

Row | EC50 | Compound
8 | 17 nM | CN1CCCC1CCN(CCCc1ccccc1)C(=O)CNc1cccc2c1CCN(CC1CC1)C2 (racemic) [Example 52, rac-2-(2-Cyclopropylmethyl-1,2,3,4-tetrahydro-isoquinolin-5-ylamino)-N-[2-(1-methyl-pyrrolidin-2-yl)-ethyl]-N-(3-phenyl-propyl)-acetamide]
9 | 16 nM | CN1CCCC1CCN(CCc1ccccc1)C(=O)CNc1cccc2c1CCN(CC1CC1)C2 (racemic) [Example 49, rac-2-(2-Cyclopropylmethyl-1,2,3,4-tetrahydro-isoquinolin-5-ylamino)-N-[2-(1-methyl-pyrrolidin-2-yl)-ethyl]-N-phenethyl-acetamide]
10 | 16 nM | CC(c1ccccc1C(F)(F)F)N(CCN(C)C)C(=O)CNc1cccc2c1CCN(CC1CC1)C2 (racemic) [Example 58, rac-2-(2-Cyclopropylmethyl-1,2,3,4-tetrahydro-isoquinolin-5-ylamino)-N-(2-dimethylamino-ethyl)-N-[1-(2-trifluoromethyl-phenyl)-ethyl]-acetamide]
11 | 5 nM | CN1CCCC1CCN(Cc1ccccc1)C(=O)CNc1cccc2c1CCN(CC1CC1)C2 (racemic) [Example 42, rac-N-Benzyl-2-(2-cyclopropylmethyl-1,2,3,4-tetrahydro-isoquinolin-5-ylamino)-N-[2-(1-methyl-pyrrolidin-2-yl)-ethyl]-acetamide]
12 | 5 nM | C/C(=C\c1ccccc1)CN(CCC1CCCN1C)C(=O)CNc1cccc2c1CCN(CC1CC1)C2 (racemic) [Example 61, rac-2-(2-Cyclopropylmethyl-1,2,3,4-tetrahydro-isoquinolin-5-ylamino)-N-((E)-2-methyl-3-phenyl-allyl)-N-[2-(1-methyl-pyrrolidin-2-yl)-ethyl]-acetamide]
